Assay results as given in patent US10905680B2, “Methods of treatment for cholestatic and fibrotic diseases” (Genfit, priority 2016, dated 2021).

Tests used:
[1] = test system: rat primary hepatic stellate cells (rHSC); test: TGFβ1-induced expression of α-SMA protein in rat HSC (ELISA); assay type: cell-based; conditions: TGFβ1 3 ng/ml, 48 hours
Procedure: NTZ (A) or TZ (B) were added to serum-deprived rat HSC (rHSC) 1 hour before the activation with TGFβ1 (3 ng/ml). After 48 hours of incubation, the expression of α-SMA was measured by ELISA. The obtained values were transformed into percentage inhibition over TGFβ1 control. Data are presented as mean (triplicates)±standard deviation (SD). Statistical analyses were performed by one-way ANOVA followed by Bonferroni post-hoc tests, using Sigma Plot 11.0 software. [*: p<0.05; **: p<0.01; ***: p<0.001 (comparison versus TGFβ1 3 ng/mL group)]. The rat primary hepatic stellate cells (rHSC) (Innoprot) were cultured in STeCM medium (ScienCell cat #5301) that was supplemented with 2% fetal bovine serum (FBS, ScienCell cat #0010), 1% penicillin/streptomycin (ScienCell cat #0503) and stellate cell growth supplement (SteCGS; ScienCell cat #5352). For the activation experiments with TGFβ1, the rHSC were plated at a density of 10×10^3 cells per well in 96-well plates. The next day, cell culture medium was removed, and cells were washed with PBS (Invitrogen cat #14190). rHSC were deprived for 24 hours in serum-free and SteCGS-free medium. […] The level of α-SMA was measured using a Sandwich ELISA. […]

[2] = test system: human primary hepatic stellate cells (hHSC); test: COL1A1 transcripts in TGFβ1-induced human HSC (RT-qPCR); assay type: cell-based; conditions: TGFβ1 1 ng/ml, 24 hours
Procedure: Serum-deprived HSC were preincubated for 1 hour with NTZ (A) or TZ (B) before the activation with TGFβ1 (1 ng/ml). After 24 hours of incubation, the expression of COL1A1 was measured by RT-qPCR. Expression values were transformed into fold induction over TGFβ1 control. Data are presented as mean (triplicates)±standard deviation (SD). Statistical analyses were performed by one-way ANOVA followed by Bonferroni post-hoc tests, using Sigma Plot 11.0 software. [*: p<0.05; **: p<0.01; ***: p<0.001 (comparison versus TGFβ1 1 ng/mL group)]. The human primary hepatic stellate cells (hHSC) (Innoprot) were cultured under standard conditions, as described above. The cells were subsequently plated at a density of 7×10^4 cells/well into 24-well plates for gene expression studies, and at a density of 2×10^4 cells/well into 96-well plates for the measure of α-SMA by ELISA. The next day, cell culture medium was removed, and cells were washed with PBS (Invitrogen cat #14190). hHSC were deprived for 24 hours in serum-free and SteCGS-free medium. […] Quantitative PCR was then carried out using the MyiQ Single-Color Real-Time PCR Detection System (Biorad). […] Expression levels were determined using the standard curve equation for both the housekeeping gene and the target gene (taking into account the specific PCR efficiency of each target gene).

With `O=C(Nc1ncc([N+](=O)[O-])s1)c1ccccc1O` [TZ, 2-hydroxy-N-(5-nitro-2-thiazolyl)benzamide] the “α-SMA levels in TGFβ-activated HSC derived from rat” value [1] was “reduced” and the COL1A1 transcripts [2] was “reduce”.
